From patent US11951089B2, “Pharmaceutical composition for preventing or treating wound or scar, comprising benzbromarone” (INNOVO THERAPEUTICS INC., priority 2020, dated 2024)

Assays:
[1] = target: T1, HSP47 (Homo sapiens, UniProt P50454); assay: Evaluation of HSP47 activity (inhibition of collagen fibril formation, OD 340 nm); format: biochemical; conditions: collagen fibril formation in PBS pH 7.4, 37° C.; HSP47 9.45 μg/ml; Prism
T1 construct: purchased GenScript US
Method: Fibrils were formed by adding 180 ul of phosphate-buffered saline (PBS, pH 7.4) solution to 20 ul of collagen dissolved in acidic solution (collagen solution, UK), which was measured at a wavelength of 340 nm. HSP47 (GenScript US) was added at a concentration of 9.45 μg/ml to evaluate HSP47 activity as the degree to which it inhibits fibril formation. Test compound was added with concentrations of 100 μM to 1 μM and the inhibitory activity of HSP47 was calculated as a percentage.
The OD measured when collagen was placed in PBS buffer (pH 7.4) to form fibrils at 37° C. was taken as 100%, and the OD measured when HSP47 and collagen were placed together to form fibrils was taken as 0%. The percentage of inhibition of HSP47 by the test compound at each concentration was measured. IC50 values were calculated using Prism software (Graphpad, USA).

[2] = tested on: Hepatic stellate cell T6; assay: Sirius red assay, TGF-β1-induced fibrosis in hepatic stellate cell T6; format: cell-based; conditions: T6, 10 ng/ml TGF-β1 co-treatment, 30 μM; compared to the TGF-β1 treatment group
Method: (§1) Hepatic stellate LX-2 (Elabscience CH), lung epithelial A549 (ATCC US), liver stellate T6 (Elabscience, CH), or skin KEL FIB (ATCC, US) cells were cultured in 24-well tissue culture plates for 18 hours, followed by TGF-beta 10 ng/ml treatment, and then incubated with test compounds for 24 hours. Cells were washed with PBS, fixed with Bouin's solution, and washed twice with distilled water. The fixed cells were stained with Sirius red for 2 hours to observe cellular morphological changes, and then washed with 0.01 N HCl solution. Collagen-bound Sirius red was extracted with 0.1 N NaOH solution, which was then quantified at a wavelength of 570 nm. The inhibitory efficacy of each compound on collagen production was shown as a percentage.
(§2) Hepatic stellate cell T6 was treated with 10 ng/ml TGF-β1 to induce fibrosis, and the test compound was treated simultaneously. The extent of fibrosis inhibition was observed by fixing the cells and staining them with Sirius Red, a collagen-specific stain, to observe morphological changes (FIG. 4A, 4B), and quantified by extracting Sirius Red with 0.1 N NaOH solution (FIG. 5).

[3] = tested on: Lung epithelial cells A549; assay: Sirius red assay, TGF-β1-induced fibrosis in lung epithelial cells A549; format: cell-based
Method: as §1
as §2, with “Lung epithelial cells A549 were” for “Hepatic stellate cell T6 was”, “staining” for “staining them”, “6A, 6B),” for “4A, 4B),”, “7).” for “5).”

[4] = tested on: burn-induced skin scarring; assay: Inhibition of burn-induced skin scarring in minipigs; format: in vivo, Yucatan minipigs; conditions: 1% ointment once daily topical, day 45 of burn induction
Method: Yucatan minipigs that had been fasted for at least 8 hours were anesthetized using xylazine hydrochloride, midazolam, and propofol. After removing the hair on the trunk and back, the test area was disinfected with povidone iodine solution. Burns were induced by contacting the test area with a 400-gram stainless steel weight for 40 seconds. Burns were applied 2 cm from the spine and 4 cm apart between burn sites. The burn area should not exceed 3.5% of the total animal area. 15 days after burning, the scab was removed and the test compound was applied to the wounds once daily. At 45 days after burn induction, autopsy was performed, and the wounds were fixed in formalin solution and H&E staining was performed to measure the thickness of the dermal layer. The test compound was suspended in propylene glycol (Yakuri pure chemicals, Japan) and made into a homogeneous suspension using an ultrasonic cleaner, which was then diluted in lanolin (Merck, USA) and petroleum jelly (Merck, USA) under 60° C. water bath to prepare an ointment. Each component of the prepared ointment is 1% (w/w) of the test compound, 20% (w/w) of propylene glycol, 15% (w/w) of lanolin, and 64% (w/w) of vaseline. […] The reduction of scar size and wound in the BBR treatment group (BBR 1%) was clearly shown numerically. […] Also, the numerical measurement of the hypertrophy of the dermis layer was shown in FIG. 15B, and the hypertrophy of the dermis layer was the lowest in the BBR treatment group (BBR 1%).

[5] = tested on: Hepatic stellate cell LX-2; assay: Sirius red assay, TGF-β1-induced fibrosis in hepatic stellate cell LX-2; format: cell-based; conditions: LX-2, 10 ng/ml TGF-β1 co-treatment; compared to the TGF-β1 treatment group; BBR 30 μM, 10 μM (FIG. 3)
Method: as §1
Hepatic stellate cell LX-2 was treated with 10 ng/ml TGF-β1 (Gibco, US) to induce fibrosis, and the benzbromarone (BBR) treatment group was treated with TGF-β1 and benzbromarone (BBR) simultaneously. The extent of fibrosis inhibition was observed by fixing the cells and staining them with Sirius Red, a collagen-specific stain, to observe morphological changes (FIG. 2A, 2B), and quantified by extracting Sirius Red with 0.1 N NaOH solution (FIG. 3).

[6] = tested on: carbon tetrachloride-induced liver fibrosis; assay: Carbon tetrachloride-induced liver fibrosis model in mice; format: in vivo; conditions: CCl4 4 weeks, oral, twice a day (30 mg/kg BID)
Method: CCl4 was administered intraperitoneally at 50 uL (1:1 corn oil) per mouse three times a week for 4 weeks, and the test compound was suspended in 0.5% methylcellulose and administered orally at a dose of 5 ml/kg daily. As a positive control, obeticholic acid (Medkoo, US) was administered at a dose of 30 mg/kg. Body weight was measured once a week during the study period. 28 days after CCl4 administration, […] were inhalationally anesthetized with ether, and once anesthesia was confirmed, they were laparotomized and blood was drawn using a syringe from the posterior vena cava, and then the abdominal aorta and posterior vena cava were cut to exsanguinate/death. Blood was separated into serum and blood biochemical tests were performed. The liver was removed and weighed, the right lobe was fixed in 10% neutral buffered formalin solution, and the left lobe was divided in half and quick-frozen in liquid nitrogen. The quick-frozen samples were stored in an ultra-low temperature freezer set below −70° C. and used for 4-Hydroxyproline assay. The fixed tissues were subjected to the usual tissue processing procedures such as cutting, dehydration, paraffin embedding, and sectioning to prepare specimens for histopathological examination. Hematoxylin & Eosin (H&E) and Picrosirius red staining were performed, and histopathological changes were observed using optical microscope (Olympus BX53, Japan), and the area of fibrosis was analyzed. To determine the extent of carbon tetrachloride-induced liver tissue damage and liver function, plasma alanine aminotransferase (ALT) and bilirubin levels were analyzed in the plasma collected from autopsy using a blood biochemistry analyzer (7180 Hitachi, Japan). […] As liver fibrosis progresses, collagen is deposited in liver tissue. The content of 4-hydroxyproline in collagen in a carbon tetrachloride-induced injured liver tissue was analyzed to determine the extent of fibrosis.

[7] = tested on: KEL FIB cells isolated from keloid patients; assay: Sirius red assay, TGF-β1-induced fibrosis in dermal fibroblast KEL FIB cells; format: cell-based
Method: as §1
as §2, with “KEL FIB cells (ATCC, USA) isolated from keloid patients were” for “Hepatic stellate cell T6 was”, “8A, 8B),” for “4A, 4B),”, “9).” for “5).”

[8] = 10 ng/ml TGF-β1, Sirius Red quantified

T1 sequence (P50454 19-418, species assumed): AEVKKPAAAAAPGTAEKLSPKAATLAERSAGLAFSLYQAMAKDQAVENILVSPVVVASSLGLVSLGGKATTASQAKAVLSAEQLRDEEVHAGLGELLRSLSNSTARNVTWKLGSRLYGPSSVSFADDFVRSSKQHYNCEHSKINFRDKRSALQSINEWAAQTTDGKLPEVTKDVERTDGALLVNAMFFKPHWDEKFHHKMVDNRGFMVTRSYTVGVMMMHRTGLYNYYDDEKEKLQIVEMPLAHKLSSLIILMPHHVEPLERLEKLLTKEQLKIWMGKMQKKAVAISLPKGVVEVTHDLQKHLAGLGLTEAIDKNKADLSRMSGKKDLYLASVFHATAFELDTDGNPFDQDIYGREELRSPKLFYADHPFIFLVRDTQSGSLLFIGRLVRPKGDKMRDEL

`CCc1oc2ccccc2c1C(=O)c1cc(Br)c(O)c(Br)c1` [benzbromarone, (3,5-dibromo-4-hydroxyphenyl)-(2-ethyl-1-benzofuran-3-yl)methanone] was tested, and the IC50 [1] was 133 µM, the “degree of fibrosis (Sirius Red, quantified)” value [2] was “significantly reduced” and the “fibrosis by Sirius Red staining (morphology)” value ([3]; A549, 10 ng/ml TGF-β1 co-treatment, 30 μM) was “fibrosis was reduced”. The IC50 ([3]; Homo sapiens, A549, 10 ng/ml TGF-β1, Sirius Red OD 570 nm, read-out: IC50 of fibrosis inhibition) was 4.25 µM, the “scar extent compared to positive control triamcinolone 0.1%” value [4] was “reduced” and the “scar size and wound extent compared to control group (Vehicle)” value [4] was “significantly reduced”. The “hypertrophy of the dermis layer (scar tissue thickness, H&E)” value ([4]; versus other groups) was “lowest”, the “degree of fibrosis (Sirius Red, quantified)” value [5] was “significantly reduced” and the “content of 4-hydroxyproline in liver tissue” value [6] was “statistically significantly reduced”. The “plasma alanine aminotransferase (ALT)” value [6] was “Statistically significant decreases”, the plasma bilirubin [6] was “Statistically significant decreases” and the “fibrosis area of liver tissue” value ([6]; versus obeticholic acid 30 mg/kg) was “comparable result with fibrosis inhibition as the obeticholic acid (OCA) treatment group”. For the same molecule, the “concentration at which the fibrosis inhibitory effect began to appear” value [7, 8] was 3 µM, the “concentration from which fibrosis was significantly inhibited” value [7, 8] was ≥ 10 µM and the “fibrosis by Sirius Red staining (morphology)” value ([7]; 10 ng/ml TGF-β1 co-treatment, 30 μM) was “fibrosis was reduced”.
